{"source": "patent US8865659B2", "about": "“Compositions for prevention or treatment of Hepatitis C virus containing ginsenoside Rg3 as an active ingredient” (priority 2012, dated 2014)", "key": {"[1]": {"tested_on": "Huh 7.5.1 cells infected with JFH-1 virus", "experiment": "Microscopic identification of virus suppression effect (cell shape, phase contrast microscope)", "assay_type": "cell-based", "conditions": "100 μM; for shapes of Huh 7.5.1 cells: JFH-1 infected", "experimental": "About 200,000 Huh 7.5.1 cells were added to a 60×15 mm cell culture dish and every 100 μM of seven ginsenosides (Ro, Re, Rg1, Rg2, Rg3, Rh1, Rh2) per 60×15 mm cell culture dish each was treated. Since it was necessary for ginsenosides in powder formulation to make solutions for the experiments, 50 mM basic concentration solutions for the seven ginsenosides each were prepared and the basic solutions were refrigerated at 4° C. until they were needed.\nNon-treatment group (Control), Non-treatment group and DMSO 10 μl treatment group (Control+DMSO 10 μl), JFH-1 virus treatment group (Only JFH-1), JFH-1 virus and DMSO 10 μl treatments group (JFH-1+DMSO 10 μl), JFH-1 virus and Ro 100 uM treatments group (JFH-1+Ro 100 uM), JFH-1 virus and Re 100 uM treatments group (JFH-1+Re 100 uM), JFH-1 virus and Rg1 100 uM treatments group (JFH-1+Rg1 100 uM), JFH-1 virus and Rg2 100 uM treatments group (JFH-1+Rg2 100 uM), JFH-1 virus and Rg3 100 uM treatments group (JFH-1+Rg3 100 uM), JFH-1 virus and Rh1 100 uM treatments group (JFH-1+Rh1 100 uM), JFH-1 virus and Rh2 100 uM treatments group (JFH-1+Rh2 100 uM), JFH-1 virus and Rg1 100 uM treatments group (JFH-1+Rg1 100 uM).\n(§1) The experiment was carried out as follow. First, 200,000 Huh 7.5.1 cells were placed in a 60×15 mm cell culture dish. Next day, Japanese Fulminant Hepatitis-1 virus (JFH-1) stock vial which was stored in −70° C. refrigerator was taken out and thawed out in a container filled with ice-water. The culture medium was collected from the cultured 60×15 mm cell culture dish, washed with 1×PBS and collected, again. 1.5 ml of JFH-1 virus solution per 60×15 mm cell culture dish each was added. The dish was shaken to cover the surface sufficiently. The dish was laid in a 5% CO2 incubator at 37° C. for 6 hours and after that, the supernatant was draw out. 1×PBS was spread on the cell surface as slow as possible and after one time washing, cells were collected. 5 ml of cell culture media was added to control and JFH-1 treatments groups. At the last step of virus-infection, 5 ml CM and each […] of ginsenosides which was set to 50 mM concentration were added to the cell culture media. After that, the cell culture media was laid in a 5% CO2 incubator at 37° C. After 72 hours, the following steps were carried out.\nAs described in the above Example 3, each 100 μM of seven ginsenosides (Ro, Re, Rg1, Rg2, Rg3, Rh1, Rh2) was treated to Huh 7.5.1 cells. After 24 hours and 72 hours, the shapes of Huh 7.5.1 cells were observed using a phase contrast microscope (ECLIPSE TE300, Nicon) of 400× magnifications."}, "HCV CORE": {"tested_on": "HCV CORE", "experiment": "Western blotting against HCV CORE in JFH-1 infected Huh 7.5.1 cells", "assay_type": "cell-based, Hepatitis C virus (JFH-1)", "conditions": "10 μM, 25 μM and 50 μM", "experimental": "as §1\nAs described in the above Example 3, the Huh 7.5.1 cells were treated with each 100 μM of seven ginsenosides (Ro, Re, Rg1, Rg2, Rg3, Rh1, Rh2). After 72 hours, a western blotting analysis was carried out for analyzing virus suppression effect against HCV CORE and cleaved PARP.\nSpecific western blotting analysis carried out was as follow. First, the above described samples were prepared, mixed with a sample buffer in tubes and heated at 100° C. for 10 minutes. The tubes were cooled on ice and centrifuged. The electrophoresis was carried out with the above samples and molecular weight markers, and then they were transferred to a PVDF membrane (hydrophobic). After blocking with 5% skin milk for an hour, each primary antibody was added. After staying overnight at 4° C., washings three times for every 10 minutes were conducted, and the blocking was carried out with 5% skin milk for an hour at the room temperature. After that, each secondary antibody was added, and the reaction for an hour and washing three times for every 10 minutes were conducted. Then, the membrane was stained by 1:1 mix with detection reagents A (Luminol Enhancer solution) and B (Peroxide solution) and developed with X ray film.\nTo examine the dose-dependent anti-virus effect of ginsenoside Rg3, western blotting analysis against cleaved PARP and HCV CORE were carried out with the samples of ginsenosides Rg3 treatment concentration at 10 μM, 25 μM, 50 μM and 100 μM each.\nTo examine the dose-dependent anti-virus effect of ginsenoside Rh2, western blotting analysis against cleaved PARP and HCV CORE were carried out with the samples of ginsenosides Rh2 treatment concentration at 10 μM, 25 μM and 50 μM each. […]"}, "[2]": {"tested_on": "JFH-1 virus infected Huh 7.5.1 cell", "experiment": "MTT assay, cytotoxicity of ginsenosides on liver cancer cell line", "assay_type": "cell-based", "conditions": "100 μM, 72 hours", "experimental": "MTT assay was conducted to identify cytotoxicity of ginsenosides.\nSpecifically, the cells (Huh7.5.1) were seeded at the rate of 1×10^4 cells (in 100 μL)/well in 96 well plates, and incubated in 5% CO2 incubator for less than 24 hours. And after the samples were washed with 1×PBS once and treated with the rate of 50 ul JFH-1 virus/well, and replaced in the 5%, CO2 incubator for six hours. After taking out the cell samples from the incubator, the samples were washed with 1×PBS once and replaced in the culturing media comprising 10, 25, 50 and 100 μL concentration of the above stated seven (7) ginsenosides in Example 3, respectively. After the cells were incubated in 5% CO2 incubator for 72 hours, 20 μl of assay reagent, EZ Cytox, was seeded into each well with the care of no bubble producing. And then, the treated cells were incubated in 5% CO2 incubator for 2.5 hours, followed by examining absorbance at 420 nm with Microplate Reader (Molecular Devices, Minn.). DMSO was the solvent used when treating with ginsenoside, and both the control group and the cells infected with JFH-1 group were also treated with the solvent DMSO."}}, "data": [{"smiles": "CC(C)=CCC[C@](C)(O)[C@H]1CC[C@]2(C)[C@@H]1[C@H](O)C[C@@H]1[C@@]3(C)CC[C@H](O[C@@H]4O[C@H](CO)[C@@H](O)[C@H](O)[C@H]4O)C(C)(C)[C@@H]3CC[C@]12C", "note": "[ginsenoside Rh2, reference compound]", "values": [{"measurement": "cell survival under treatment", "setting": "[1]", "result": "all cells became extinct"}, {"measurement": "shapes of Huh 7.5.1 cells", "setting": "[1]; 24 hours after treatment", "result": "No cell were remained due to the apoptosis of all cells"}, {"measurement": "shapes of Huh 7.5.1 cells", "setting": "[1]; 72 hours after treatment", "result": "No cell were remained due to the apoptosis of all cells"}, {"measurement": "virus suppression effect (HCV CORE), dose dependence", "setting": "HCV CORE", "result": "dose-dependent manner"}, {"measurement": "cytotoxicity (MTT assay)", "setting": "[2]", "result": "cytotoxic effect was shown predominantly"}]}]}
